Data set [1] has as its system LoVo colorectal adenocarcinoma cell line. Kind of data set: MTT cytotoxicity assay on LoVo cells. The format is cell-based. The settings on record: for IC50: MTT, 48 h treatment; for effect on growth and proliferation (FIGS. 7A, 7B): 6.25-100 nM. Here is the method:
(§1) HCT-8, fluorouracil-resistant HCT-8, fluorouracil-resistant LoVo cell lines were cultured in RPMI Medium 1640 medium containing 10% FBS and 1% penicillin/streptomycin. LoVo cell line was cultured in F-12K medium containing 10% FBS and 1% penicillin/streptomycin. All cell lines above were cultured at humidified atmosphere containing 5% CO2 at 37° C.
(§2) In the cytotoxicity assay, exponentially growing cells of each cancer cell line were plated in 96-well microplate at a density of 5000 cells per well in 100 μL of culture medium and allowed to adhere for 24 h before treatment. Serial concentrations of RNA molecules obtained in Example 1 to 4 in a mixture containing a gene delivery carrier, i.e. Lipofectamine™ RNAiMAX Transfection Reagent (Thermo Fisher Scientific, U.S.A.) were then added to the cells. After treated for 48 h, MTT solution (50 μL per well, 1 mg/mL solution) was added to each well and incubated for 4 h at 37° C. Subsequently, 200 μL dimethyl sulfoxide (DMSO) were added and the optical densities of the resulting solutions were calorimetrically determined at 570 nm using a SpectraMax 190 microplate reader (Molecular Devices, Sunnyvale, CA, U.S.A). Dose-response curves were obtained, and the IC50 values were calculated by GraphPad Prism 5 (GraphPad, La Jolla, CA, USA). Each experiment was carried out for three times. IC50 results were expressed as means±standard deviation.
Background: Tetrazolium dyes change colour on reduction, which living cells bring about.

Data set [2] concerns HCT-8 human ileocecal colorectal adenocarcinoma cell line. Kind of data set: MTT cytotoxicity assay on HCT-8 cells. The settings on record: for IC50 / effect on growth and proliferation (FIGS. 7A, 7B): HCT-8; for IC50: MTT, 48 h treatment; for cell viability of HCT-8 cells (FIG. 6A): 50 nM, 48 h, vs control and RNAiMAX group; for effect on growth and proliferation (FIGS. 7A, 7B): 6.25-100 nM. The data set is classed as cell-based. As to the method: as §1, §2

In data set [3] the test system is LoVo/5-FU (5-FU-resistant strain of LoVo). Kind of data set: MTT cytotoxicity assay on LoVo/5-FU cells. The data set is classed as cell-based. Particulars: for IC50: MTT, 48 h treatment; for effect on growth and proliferation (FIGS. 7A, 7B): 6.25-100 nM. As to the method: as §1, §2
Data set [4] concerns HCT-8/5-FU (5-FU-resistant strain of HCT-8). Briefly: MTT cytotoxicity assay on HCT-8/5-FU cells. The format is cell-based, human. Particulars: for IC50: MTT, 48 h treatment; for effect on growth and proliferation (FIGS. 7A, 7B): 6.25-100 nM. As to the method: as §1, §2
Data set [5] concerns HCT-8 cells. Kind of data set: Wound-healing assay on HCT-8 cells. The format is cell-based, human. The settings on record: 50 nM, vs control group. Here is the method: as §1
(§3) In the wound-healing assay, HCT-8 or LoVo cells were plated in 6-well microplate at a density of 500,000 cells per well in 2 mL of culture medium and allowed to adhere for 24 h before treatment. […] A 1 mL bacteria-free pipette tip was used to make a cross-scratch at the bottom of 6-well microplate. The cells in the scratch were washed away using phosphor buffer solution and the 6-well microplate was photographed under a microscope. Single concentration of RNA molecules obtained in Example 1 to 4 in a mixture containing a gene delivery carrier, i.e. Lipofectamine™ RNAiMAX Transfection Reagent (Thermo Fisher Scientific, U.S.A.) were then added to the cells. The cells were then photographed under microscope at 24 and 48 h. ImageJ software was applied to quantify the area of wound created. Each experiment was carried out for three times. Results were expressed as means±standard deviation.

The subject of data set [6] is LoVo cells. Kind of data set: Wound-healing assay on LoVo cells. The data set is classed as cell-based. Particulars: 25 nM, vs control group. Here is the method: as §1, §3
The subject of data set [7] is HCT-8 cells. Kind of data set: Clonogenic assay on HCT-8 cells. Particulars: 50 nM, vs control group. The format is cell-based, human. Here is the method:
as §1
(§4) In the clonogenic assay, HCT-8 or LoVo cells were plated in 6-well microplate at a density of 1000 cells per well in 2 mL of culture medium and allowed to adhere for 24 h before treatment. Single concentration of RNA molecules obtained in Example 1 to 4 in a mixture containing a gene delivery carrier, i.e. Lipofectamine™ RNAiMAX Transfection Reagent (Thermo Fisher Scientific, U.S.A.) were then added to the cells. After treated for 48 h, discarded the drug solutions and replaced with 2 mL of fresh culture medium. After culture 14 days, discarded the culture medium and the cells were fixated with 4% paraformaldehyde fix solution for 20 min, followed by stained with crystal violet for 10 min and then washed by deionized water. The 6-well microplate was photographed and the number of colonies with more than 50 individual cells were counted using ImageJ software (U.S.A.). Each experiment was carried out for three times. Results were expressed as means±standard deviation.

For data set [8], the system named is LoVo cells. Kind of data set: Clonogenic assay on LoVo cells. Particulars: 25 nM, vs control group. The format is cell-based. As to the method: as §1, §4

[s4U] = 4-thiouridine base

Regarding `O=c1[nH]cc(F)c(=O)[nH]1` [5-FU, fluorouracil, reference compound], the IC50 stood at 63900 nM in data set [1] (Homo sapiens), 41400 nM in data set [2] (Homo sapiens), 133000 nM in data set [3] (Homo sapiens) and 171000 nM in data set [4] (Homo sapiens).

As for “EC41 mimic: 22 bp dsRNA; antisense SEQ ID NO: 47 GGGUGAUUAGCUCAGCUGGGAG, sense SEQ ID NO: 141 CUCCCAGCUGAGCUAAUCACCC; 5′-t of tRNA-Val(UAC) (listed as RNA, chemistry not given here) [22 bp dsRNA; 5′-t of tRNA-Val(UAC)]”, in data set [2], the “cell viability of HCT-8 cells (FIG. 6A)” value was “effective to colorectal cancer cells”.

“EC42 mimic: 22 bp dsRNA; antisense SEQ ID NO: 48 UCGAUCCCGUCAUCACCCACCA, sense SEQ ID NO: 142 UGGUGGGUGAUGACGGGAUCGA; 3′-t of tRNA-Val(UAC) (listed as RNA, chemistry not given here) [22 bp dsRNA; 3′-t of tRNA-Val(UAC)]”: the “cell viability of HCT-8 cells (FIG. 6A)” value in data set [2] is “effective to colorectal cancer cells”.

Turning to “EC83 mimic: 22 bp dsRNA; antisense SEQ ID NO: 89 GCCGAAGUGGCGAAAUCGGUAG, sense SEQ ID NO: 183 CUACCGAUUUCGCCACUUCGGC; 5′-t of tRNA-Leu(CAA) (RNA, backbone not given here; tRNA-derived fragment mimic duplex) [22 bp dsRNA; 5′-t of tRNA-Leu(CAA)]”, in the data set with HCT-8 cells [5], the “wound area, inhibition of migration (FIG. 9A)” value was “significantly inhibit the migration”. For the same molecule, the “effect on growth and proliferation (FIGS. 7A, 7B)” value in data set [1] was “dose-dependent effect on inhibiting the growth and proliferation”; in data set [2], “dose-dependent effect on inhibiting the growth and proliferation”; in data set [3], “dose-dependent effect on inhibiting the growth and proliferation”; in data set [4] it was “dose-dependent effect on inhibiting the growth and proliferation”. Further, the IC50 in data set [1] amounted to 28.8 nM; in data set [2], 70.6 nM; in data set [3], 29.5 nM; in data set [4], 63.4 nM. The “wound area, inhibition of migration (FIG. 9B)” value in the data set on LoVo cells [6] is “significantly inhibit the migration”. Further, in data set [2] (among synthetic RNA molecules of Example 4), the “cytotoxicity ranking on HCT-8 cells (FIG. 6C)” value is “strongest cytotoxicity”. The “colony number, inhibition of proliferation (FIG. 8A)” value with HCT-8 cells [7] was “significantly inhibit the proliferation”. Moreover, the “colony number, inhibition of proliferation (FIG. 8B)” value with LoVo cells [8] was “significantly inhibit the proliferation”.

With “EC83-M1 mimic: modified EC83 dsRNA; antisense SEQ ID NO: 1 GCCGAAG[s^4U]GGCGAAAUCGGUAG, sense SEQ ID NO: 4 CUACCGAUUUCGCCACUUCGGC (antisense GCCGAAGUGGCGAAAUCGGUAG; antisense: RNA, [s4U] at 8, backbone not given here; sense: RNA, backbone not given here; tRNA-derived fragment mimic duplex)”, in the data set on HCT-8 cells [5], the “wound area, inhibition of migration (FIG. 9A)” value is reported as “significantly inhibit the migration”. Moreover, the “effect on growth and proliferation (FIGS. 7A, 7B)” value was “dose-dependent effect on inhibiting the growth and proliferation” in data set [1]; “dose-dependent effect on inhibiting the growth and proliferation” in data set [2]; “dose-dependent effect on inhibiting the growth and proliferation” in data set [3]; “dose-dependent effect on inhibiting the growth and proliferation” in data set [4]. For the same molecule, the IC50 is 43.6 nM in data set [1], 77.9 nM in data set [2], 54.2 nM in data set [3] and 69.6 nM in data set [4]. In addition, the “wound area, inhibition of migration (FIG. 9B)” value in the data set on LoVo cells [6] is reported as “significantly inhibit the migration”. In the data set on HCT-8 cells [7], the “colony number, inhibition of proliferation (FIG. 8A)” value is “significantly inhibit the proliferation”. For the same molecule, in the data set on LoVo cells [8], the “colony number, inhibition of proliferation (FIG. 8B)” value is reported as “significantly inhibit the proliferation”.

Regarding “EC85 mimic: 22 bp dsRNA; antisense SEQ ID NO: 91 GCGAAGGUGGCGGAAUUGGUAG, sense SEQ ID NO: 185 CUACCAAUUCCGCCACCUUCGC; 5′-t of tRNA-Leu(CAG) (listed as RNA, chemistry not given here) [22 bp dsRNA; 5′-t of tRNA-Leu(CAG)]”, the “cell viability of HCT-8 cells (FIG. 6A)” value in data set [2] is recorded as “effective to colorectal cancer cells”.

As for “EC86 mimic: 22 bp dsRNA; antisense SEQ ID NO: 92 UCAAGUCCCCCCCCUCGCACCA, sense SEQ ID NO: 186 UGGUGCGAGGGGGGGGACUUGA; 3′-t of tRNA-Leu(CAG) (listed as RNA, chemistry not given here) [22 bp dsRNA; 3′-t of tRNA-Leu(CAG)]”, in data set [2], the “cell viability of HCT-8 cells (FIG. 6A)” value is “effective to colorectal cancer cells”.

B1: tRNA-Val(UAC): tRNA purified from Escherichia coli MRE600 total tRNA, SEQ ID NO: 237 (nucleic acid, listed as Escherichia coli)
chain: GGGUGAUUAGCUCAGCDGGGAGAGCACCUCCCUUACAAGGAGGGGGUCGGCGGUNCGAUCCCGUCAUCACCCACCA
modifications: expressed or natural sequence
As for B1, in data set [2], the “cell viability of HCT-8 cells (FIG. 6A)” value was “effective to colorectal cancer cells”.

B2: tRNA-Leu(CAG): tRNA purified from Escherichia coli MRE600 total tRNA, SEQ ID NO: 218 (nucleic acid, listed as Escherichia coli)
chain: GCGAAGGUGGCGGAANNGGNAGACGCGCUAGCUUCAGGNGNUAGUGUCCUUACGGACGUGGGGGUNCAAGUCCCCCCCCUCGCACCA
modifications: expressed or natural sequence
Turning to B2, the “cell viability of HCT-8 cells (FIG. 6A)” value in data set [2] was “effective to colorectal cancer cells”.

Broadly, the IC50 is the concentration needed to halve the response being measured. Low readings indicate higher potency, high ones lower potency.

(Values after patent publication US11866704B2, “Nucleic acid molecules and uses thereof” (Macau University of Science and Technology, priority 2020, dated 2024).)
